Each compound was assayed against T1, factor VIIa/tissue factor (Homo sapiens, UniProt P08709) (assay: Factor VIIa (FVIIa) chromogenic assay). Settings: human factor VIIa 5 nM and TF 10 nM; chromogenic substrate S-2288 500 μM; 25° C.; 15 minute preincubation; pH 8.15.
T1 construct: human factor VIIa and TF
Format: biochemical
Protocol: The ability of the compounds of the formula I to inhibit factor VIIa or other enzymes like factor Xa, thrombin, plasmin, or trypsin can be assessed by determining the concentration of the compound of the formula I that inhibits enzyme activity by 50%, i.e. the IC50 value, which is related to the inhibition constant Ki. Purified enzymes are used in chromogenic assays. The concentration of inhibitor that causes a 50% decrease in the rate of substrate hydrolysis is determined by linear regression after plotting the relative rates of hydrolysis (compared to the uninhibited control) versus the log of the concentration of the compound of formula I. For calculating the inhibition constant Ki, the IC50 value is corrected for competition with substrate using the formula
Ki=IC50/{1+(substrate concentration/Km)}
wherein Km is the Michaelis-Menten constant (Chen and Prusoff, Biochem. Pharmacol. 22 (1973), 3099-3108; I. H. Segal, Enzyme Kinetics, 1975, John Wiley & Sons, New York, 100-125; which are incorporated herein by reference).
a) Factor VIIa (FVIIa) Assay
The inhibitory activity (expressed as inhibition constant Ki(FVIIa)) of the compounds of formula I towards factor VIIa/tissue factor activity was determined using a chromogenic assay essentially as described previously (J. A. Ostrem et al., Biochemistry 37 (1998) 1053-1059 which is incorporated herein by reference). Kinetic assays were conducted at 25° C. in half-area microtiter plates (Costar Corp., Cambridge, Mass.) using a kinetic plate reader (Molecular Devices Spectramax 250). A typical assay consisted of 25 μl human factor VIIa and TF (5 nM and 10 nM, respective final concentration) combined with 40 μl of inhibitor dilutions in 10% DMSO/TBS-PEG buffer (50 mM Tris, 15 mM NaCl, 5 mM CaCl2, 0.05% PEG 8000, pH 8.15). Following a 15 minute preincubation period, the assay was initiated by the addition of 35 μl of the chromogenic substrate S-2288 (D-Ile-Pro-Arg-p-nitroanilide, Pharmacia Hepar Inc., 500 μM final concentration).

T1 sequence (P08709 213-466 limits assumed): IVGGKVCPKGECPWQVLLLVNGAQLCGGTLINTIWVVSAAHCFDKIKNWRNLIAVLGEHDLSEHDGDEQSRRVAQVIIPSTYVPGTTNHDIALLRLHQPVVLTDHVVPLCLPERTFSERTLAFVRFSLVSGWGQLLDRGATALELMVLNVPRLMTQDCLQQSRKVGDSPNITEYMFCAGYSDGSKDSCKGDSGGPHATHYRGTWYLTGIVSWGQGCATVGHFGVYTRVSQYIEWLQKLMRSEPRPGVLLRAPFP
T1 sequence (P08709 61-212 limits assumed): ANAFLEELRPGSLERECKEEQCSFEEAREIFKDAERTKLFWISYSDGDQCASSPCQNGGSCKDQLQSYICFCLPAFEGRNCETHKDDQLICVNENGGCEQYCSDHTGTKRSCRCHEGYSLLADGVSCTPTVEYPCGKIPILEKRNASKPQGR
T1 sequence (P13726 33-295 partner): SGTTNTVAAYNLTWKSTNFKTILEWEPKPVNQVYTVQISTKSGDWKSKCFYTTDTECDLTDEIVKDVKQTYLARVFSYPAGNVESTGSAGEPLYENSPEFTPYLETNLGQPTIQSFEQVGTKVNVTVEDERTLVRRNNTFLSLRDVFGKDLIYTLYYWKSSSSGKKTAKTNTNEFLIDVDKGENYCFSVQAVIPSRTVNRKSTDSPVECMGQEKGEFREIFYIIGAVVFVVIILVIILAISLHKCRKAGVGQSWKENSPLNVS

| Compound | Ki |
| --- | --- |
| CC(Nc1ccccc1NC(=O)Nc1ccc(C(=N)N)cc1)c1ccccc1 (stereo not drawn) [Example 2, 4-{3-[2-(1-Phenyl-ethylamino)-phenyl]-ureido}-benzamidin] | 700 nM |
| CC(Nc1ccccc1NC(=O)Nc1ccc(C(=N)N)cc1)c1ccc(C(=O)Nc2csc(-c3ccccc3)c2)cc1 (stereo not drawn) [Example 30] | 282 nM |
| CC(Nc1ccccc1NC(=O)Nc1ccc(C(=N)N)cc1)c1ccc(C(=O)Nc2ccc(C(F)(F)F)cc2)cc1 (stereo not drawn) [Example 39] | 935 nM |
| CC(Nc1ccccc1CNC(=O)Nc1ccc(C(=N)N)cc1)c1cccc(C(F)(F)F)c1 (stereo not drawn) [Example 18] | 44400 nM |

The next compounds have a lower Ki than those just listed; values first:

| Ki | Compound |
| --- | --- |
| 188 nM | CC(Nc1ccccc1NC(=O)Nc1ccc(C(=N)N)cc1)c1ccc(C(=O)N2CCOCC2)cc1 (stereo not drawn) [Example 5, 4-[3-(2-{1-[4-(morpholine-4-carbonyl)-phenyl]-ethylamino}-phenyl)-ureido]-benzamidine acetate] |
| 103 nM | C[C@@H](Nc1ccccc1NC(=O)Nc1ccc(C(=N)N)cc1)c1ccccc1 [Example 15] |
| 98 nM | CC(Nc1ccccc1NC(=O)Nc1ccc(C(=N)N)cc1)c1ccc(C(=O)NCc2ccc(S(C)(=O)=O)cc2)cc1 (stereo not drawn) [Example 24] |
| 56 nM | CC(Nc1ccccc1NC(=O)Nc1ccc(C(=N)N)cc1)c1ccc(C(=O)NC2CCCCC2)cc1 (stereo not drawn) [Example 37] |
| 51 nM | CC(Nc1ccccc1NC(=O)Nc1ccc(C(=N)N)cc1)c1ccc(C(=O)Nc2cccc(S(C)(=O)=O)c2)cc1 (stereo not drawn) [Example 19] |

Reference: US6706715B2, “Urea derivatives with antiproteolytic activity” (Aventis Pharma Deutschland GmbH, priority 2001, dated 2004)
